From the NIST ThermoML archive (doi:10.1021/je800335v)
± gives the expanded uncertainty stated by the source.

Assays:
[1] = molar heat capacity at constant pressure; details: 101.33 kPa, Liquid, Small sample (50 mg) DSC
[2] = molar heat capacity at constant pressure; xn = mol fraction of the nth substance listed; details: 298 K, 101 kPa, Liquid, Small sample (50 mg) DSC

CCn1cc[n+](C)c1.O=S(=O)([N-]S(=O)(=O)C(F)(F)F)C(F)(F)F
molar heat capacity at constant pressure ([1]; 293 K): 523 ± 27 J/K/mol | molar heat capacity at constant pressure ([1]; 298 K): 525 ± 27 J/K/mol | molar heat capacity at constant pressure ([1]; 303 K): 527 ± 27 J/K/mol | molar heat capacity at constant pressure ([1]; 308 K): 529 ± 27 J/K/mol | molar heat capacity at constant pressure ([1]; 313 K): 533 ± 28 J/K/mol | molar heat capacity at constant pressure ([1]; 318 K): 535 ± 28 J/K/mol | molar heat capacity at constant pressure ([1]; 323 K): 538 ± 28 J/K/mol | molar heat capacity at constant pressure ([1]; 328 K): 539 ± 28 J/K/mol | molar heat capacity at constant pressure ([1]; 333 K): 542 ± 28 J/K/mol | molar heat capacity at constant pressure ([1]; 338 K): 545 ± 28 J/K/mol | molar heat capacity at constant pressure ([1]; 343 K): 547 ± 28 J/K/mol | molar heat capacity at constant pressure ([1]; 348 K): 548 ± 28 J/K/mol | molar heat capacity at constant pressure ([1]; 353 K): 550 ± 29 J/K/mol | molar heat capacity at constant pressure ([1]; 358 K): 551 ± 29 J/K/mol

CCOS(=O)(=O)[O-].CCn1cc[n+](C)c1 [1-ethyl-3-methylimidazolium ethyl sulfate]
molar heat capacity at constant pressure ([1]; 293 K): 388 ± 20 J/K/mol | molar heat capacity at constant pressure ([1]; 298 K): 389 ± 20 J/K/mol | molar heat capacity at constant pressure ([1]; 303 K): 391 ± 20 J/K/mol | molar heat capacity at constant pressure ([1]; 308 K): 394 ± 20 J/K/mol | molar heat capacity at constant pressure ([1]; 313 K): 398 ± 21 J/K/mol | molar heat capacity at constant pressure ([1]; 318 K): 402 ± 21 J/K/mol | molar heat capacity at constant pressure ([1]; 323 K): 406 ± 21 J/K/mol | molar heat capacity at constant pressure ([1]; 328 K): 410 ± 21 J/K/mol | molar heat capacity at constant pressure ([1]; 333 K): 415 ± 22 J/K/mol | molar heat capacity at constant pressure ([1]; 338 K): 420 ± 22 J/K/mol | molar heat capacity at constant pressure ([1]; 343 K): 427 ± 22 J/K/mol | molar heat capacity at constant pressure ([1]; 348 K): 433 ± 23 J/K/mol | molar heat capacity at constant pressure ([1]; 353 K): 440 ± 23 J/K/mol | molar heat capacity at constant pressure ([1]; 358 K): 447 ± 23 J/K/mol

CCCCCCCCCCCCCC[P+](CCCCCC)(CCCCCC)CCCCCC.O=S(=O)([N-]S(=O)(=O)C(F)(F)F)C(F)(F)F
molar heat capacity at constant pressure ([1]; 293 K): 1366 ± 71 J/K/mol | molar heat capacity at constant pressure ([1]; 298 K): 1366 ± 71 J/K/mol | molar heat capacity at constant pressure ([1]; 303 K): 1368 ± 71 J/K/mol | molar heat capacity at constant pressure ([1]; 308 K): 1372 ± 71 J/K/mol | molar heat capacity at constant pressure ([1]; 313 K): 1379 ± 72 J/K/mol | molar heat capacity at constant pressure ([1]; 318 K): 1384 ± 72 J/K/mol | molar heat capacity at constant pressure ([1]; 323 K): 1389 ± 72 J/K/mol | molar heat capacity at constant pressure ([1]; 328 K): 1389 ± 72 J/K/mol | molar heat capacity at constant pressure ([1]; 333 K): 1395 ± 72 J/K/mol | molar heat capacity at constant pressure ([1]; 338 K): 1397 ± 73 J/K/mol | molar heat capacity at constant pressure ([1]; 343 K): 1402 ± 73 J/K/mol | molar heat capacity at constant pressure ([1]; 348 K): 1405 ± 73 J/K/mol | molar heat capacity at constant pressure ([1]; 353 K): 1409 ± 73 J/K/mol | molar heat capacity at constant pressure ([1]; 358 K): 1413 ± 73 J/K/mol

CCCCn1cc[n+](C)c1.O=S(=O)([O-])C(F)(F)F [1-butyl-3-methylimidazolium trifluoromethanesulfonate] + O
molar heat capacity at constant pressure ([2]; x2 = 0.0108): 448 ± 23 J/K/mol | molar heat capacity at constant pressure ([2]; x2 = 0.137): 401 ± 21 J/K/mol | molar heat capacity at constant pressure ([2]; x2 = 0.3379): 325 ± 17 J/K/mol | molar heat capacity at constant pressure ([2]; x2 = 0.5215): 257 ± 13 J/K/mol

CCCC[N+]1(C)CCCC1.FC(F)(F)C(F)(F)[P-](F)(F)(F)(C(F)(F)C(F)(F)F)C(F)(F)C(F)(F)F
molar heat capacity at constant pressure ([1]; 293 K): 767 ± 40 J/K/mol | molar heat capacity at constant pressure ([1]; 298 K): 769 ± 40 J/K/mol | molar heat capacity at constant pressure ([1]; 303 K): 773 ± 40 J/K/mol | molar heat capacity at constant pressure ([1]; 308 K): 776 ± 40 J/K/mol | molar heat capacity at constant pressure ([1]; 313 K): 781 ± 41 J/K/mol | molar heat capacity at constant pressure ([1]; 318 K): 785 ± 41 J/K/mol | molar heat capacity at constant pressure ([1]; 323 K): 788 ± 41 J/K/mol | molar heat capacity at constant pressure ([1]; 328 K): 791 ± 41 J/K/mol | molar heat capacity at constant pressure ([1]; 333 K): 796 ± 41 J/K/mol | molar heat capacity at constant pressure ([1]; 338 K): 799 ± 42 J/K/mol | molar heat capacity at constant pressure ([1]; 343 K): 803 ± 42 J/K/mol | molar heat capacity at constant pressure ([1]; 348 K): 806 ± 42 J/K/mol | molar heat capacity at constant pressure ([1]; 353 K): 809 ± 42 J/K/mol | molar heat capacity at constant pressure ([1]; 358 K): 812 ± 42 J/K/mol

CCCCCCCCn1cc[n+](C)c1.O=S(=O)([N-]S(=O)(=O)C(F)(F)F)C(F)(F)F
molar heat capacity at constant pressure ([1]; 293 K): 724 ± 38 J/K/mol | molar heat capacity at constant pressure ([1]; 298 K): 733 ± 38 J/K/mol | molar heat capacity at constant pressure ([1]; 303 K): 741 ± 39 J/K/mol | molar heat capacity at constant pressure ([1]; 308 K): 748 ± 39 J/K/mol | molar heat capacity at constant pressure ([1]; 313 K): 756 ± 39 J/K/mol | molar heat capacity at constant pressure ([1]; 318 K): 765 ± 40 J/K/mol | molar heat capacity at constant pressure ([1]; 323 K): 773 ± 40 J/K/mol | molar heat capacity at constant pressure ([1]; 328 K): 779 ± 40 J/K/mol | molar heat capacity at constant pressure ([1]; 333 K): 788 ± 41 J/K/mol | molar heat capacity at constant pressure ([1]; 338 K): 795 ± 41 J/K/mol | molar heat capacity at constant pressure ([1]; 343 K): 803 ± 42 J/K/mol | molar heat capacity at constant pressure ([1]; 348 K): 810 ± 42 J/K/mol | molar heat capacity at constant pressure ([1]; 353 K): 817 ± 42 J/K/mol | molar heat capacity at constant pressure ([1]; 358 K): 825 ± 43 J/K/mol

CCCC[n+]1ccn(C)c1.O=S(=O)([N-]S(=O)(=O)C(F)(F)F)C(F)(F)F
molar heat capacity at constant pressure ([1]; 293 K): 595 ± 31 J/K/mol | molar heat capacity at constant pressure ([1]; 298 K): 599 ± 31 J/K/mol | molar heat capacity at constant pressure ([1]; 303 K): 603 ± 31 J/K/mol | molar heat capacity at constant pressure ([1]; 308 K): 607 ± 32 J/K/mol | molar heat capacity at constant pressure ([1]; 313 K): 612 ± 32 J/K/mol | molar heat capacity at constant pressure ([1]; 318 K): 617 ± 32 J/K/mol | molar heat capacity at constant pressure ([1]; 323 K): 621 ± 32 J/K/mol | molar heat capacity at constant pressure ([1]; 328 K): 624 ± 32 J/K/mol | molar heat capacity at constant pressure ([1]; 333 K): 628 ± 33 J/K/mol | molar heat capacity at constant pressure ([1]; 338 K): 631 ± 33 J/K/mol | molar heat capacity at constant pressure ([1]; 343 K): 634 ± 33 J/K/mol | molar heat capacity at constant pressure ([1]; 348 K): 636 ± 33 J/K/mol | molar heat capacity at constant pressure ([1]; 353 K): 639 ± 33 J/K/mol | molar heat capacity at constant pressure ([1]; 358 K): 641 ± 33 J/K/mol

CCCCn1cc[n+](C)c1.O=S(=O)([O-])C(F)(F)F [1-butyl-3-methylimidazolium trifluoromethanesulfonate]
molar heat capacity at constant pressure ([1]; 293 K): 455 ± 24 J/K/mol | molar heat capacity at constant pressure ([1]; 298 K): 457 ± 24 J/K/mol | molar heat capacity at constant pressure ([1]; 303 K): 459 ± 24 J/K/mol | molar heat capacity at constant pressure ([1]; 308 K): 461 ± 24 J/K/mol | molar heat capacity at constant pressure ([1]; 313 K): 465 ± 24 J/K/mol | molar heat capacity at constant pressure ([1]; 318 K): 469 ± 24 J/K/mol | molar heat capacity at constant pressure ([1]; 323 K): 473 ± 25 J/K/mol | molar heat capacity at constant pressure ([1]; 328 K): 477 ± 25 J/K/mol | molar heat capacity at constant pressure ([1]; 333 K): 481 ± 25 J/K/mol | molar heat capacity at constant pressure ([1]; 338 K): 486 ± 25 J/K/mol | molar heat capacity at constant pressure ([1]; 343 K): 490 ± 25 J/K/mol | molar heat capacity at constant pressure ([1]; 348 K): 495 ± 26 J/K/mol | molar heat capacity at constant pressure ([1]; 353 K): 500 ± 26 J/K/mol | molar heat capacity at constant pressure ([1]; 358 K): 504 ± 26 J/K/mol

CCCC[n+]1ccn(C)c1.O=S(=O)([N-]S(=O)(=O)C(F)(F)F)C(F)(F)F + CCCCn1cc[n+](C)c1.[Cl-]
molar heat capacity at constant pressure ([2]; x2 = 0.0919): 549 ± 29 J/K/mol | molar heat capacity at constant pressure ([2]; x2 = 0.2394): 515 ± 27 J/K/mol | molar heat capacity at constant pressure ([2]; x2 = 0.4129): 468 ± 24 J/K/mol | molar heat capacity at constant pressure ([2]; x2 = 0.5832): 420 ± 22 J/K/mol

CCCCCC[n+]1ccn(C)c1.O=S(=O)([N-]S(=O)(=O)C(F)(F)F)C(F)(F)F
molar heat capacity at constant pressure ([1]; 293 K): 669 ± 35 J/K/mol | molar heat capacity at constant pressure ([1]; 298 K): 667 ± 35 J/K/mol | molar heat capacity at constant pressure ([1]; 303 K): 667 ± 35 J/K/mol | molar heat capacity at constant pressure ([1]; 308 K): 668 ± 35 J/K/mol | molar heat capacity at constant pressure ([1]; 313 K): 671 ± 35 J/K/mol | molar heat capacity at constant pressure ([1]; 318 K): 673 ± 35 J/K/mol | molar heat capacity at constant pressure ([1]; 323 K): 675 ± 35 J/K/mol | molar heat capacity at constant pressure ([1]; 328 K): 676 ± 35 J/K/mol | molar heat capacity at constant pressure ([1]; 333 K): 679 ± 35 J/K/mol | molar heat capacity at constant pressure ([1]; 338 K): 680 ± 35 J/K/mol | molar heat capacity at constant pressure ([1]; 343 K): 683 ± 35 J/K/mol | molar heat capacity at constant pressure ([1]; 348 K): 685 ± 36 J/K/mol | molar heat capacity at constant pressure ([1]; 353 K): 687 ± 36 J/K/mol | molar heat capacity at constant pressure ([1]; 358 K): 689 ± 36 J/K/mol

CCCC[N+]1(C)CCCC1.O=S(=O)([N-]S(=O)(=O)C(F)(F)F)C(F)(F)F
molar heat capacity at constant pressure ([1]; 293 K): 630 ± 33 J/K/mol | molar heat capacity at constant pressure ([1]; 298 K): 629 ± 33 J/K/mol | molar heat capacity at constant pressure ([1]; 303 K): 632 ± 33 J/K/mol | molar heat capacity at constant pressure ([1]; 308 K): 639 ± 33 J/K/mol | molar heat capacity at constant pressure ([1]; 313 K): 644 ± 33 J/K/mol | molar heat capacity at constant pressure ([1]; 318 K): 650 ± 34 J/K/mol | molar heat capacity at constant pressure ([1]; 323 K): 654 ± 34 J/K/mol | molar heat capacity at constant pressure ([1]; 328 K): 656 ± 34 J/K/mol | molar heat capacity at constant pressure ([1]; 333 K): 659 ± 34 J/K/mol | molar heat capacity at constant pressure ([1]; 338 K): 661 ± 34 J/K/mol | molar heat capacity at constant pressure ([1]; 343 K): 660 ± 34 J/K/mol | molar heat capacity at constant pressure ([1]; 348 K): 659 ± 34 J/K/mol | molar heat capacity at constant pressure ([1]; 353 K): 658 ± 34 J/K/mol
